We go through one substance from patent US12551537B2, “Methods and compositions for the treatment and prevention of type 1 diabetes” (Dr. Mary Morris & Associates, LLC, priority 2019, dated 2026).

Experiment [1] has as its system non-obese diabetic (NOD) mice. Briefly: Onset of hyperglycemia / Type 1 diabetes in NOD mice with sublingual treatment. The class given is in vivo, mouse. The note with it: for Median Survival (time to Type 1 diabetes onset): female NOD mice, sublingual 87 μg once per day, diabetic = three consecutive blood glucose readings above 300 mg/dL, control 21 weeks; for Gehan-Breslow-Wilcoxon test: Are the survival curves significantly different? / Log-rank (Mantel-Cox) test: Are the survival curves significantly different?: vs control. As for the experimental part:
Sublingual formulation. A commercial high dose Humulin® solution (Humulin® R U-500) containing 500 units of insulin per mL is mixed with an additional equal volume (1:1 (vol:vol)) 100% glycerin. Each dose contains 10 μL of the Humulin®-glycerin solution, which contains 2.5 units (approximately 87 micrograms) of insulin in a solution having a final concentration of 52 vol. % glycerin.
NOD mice. Non-obese diabetic (NOD) mice, as described by Makino (Adv. Immunol. 51:285-322 (1992)), are used in the studies described herein. NOD mice provide an animal model for the spontaneous development of Type 1 diabetes. NOD mice develop insulitis as a result of leukocyte infiltration into the pancreatic islet, which in turn leads to the destruction of pancreatic islets and a Type 1 diabetic phenotype.
Five-week old female NOD mice were randomly assigned to three groups: (1) control group (1:1 glycerin/phosphate buffered saline (PBS)); (2) insulin-related peptide treatment (Humulin®) started at six weeks of age; or (3) insulin-related peptide treatment (Humulin®) started at ten weeks of age. Mice in the treatment groups (2) and (3) were sublingually administered 87 μg of Humulin® (10 μL of solution) once per day up to 30 weeks of age. Blood glucose measurements were taken once per week up to 20 weeks of age, and then twice per week thereafter. Mice were classified as diabetic after three consecutive blood glucose readings above 300 mg/dL (hyperglycemic).

A further experiment deals with serum C-peptide. Briefly: Serum C-peptide levels in NOD mice (mouse C-peptide ELISA). The class given is in vivo. The settings on record: sublingual 87 μg once per day up to 30 weeks of age, compared to untreated control NOD mice. The method, then:
Serum C-peptide assay. The mouse C-peptide ELISA (ALPCO), which quantifies C-peptide protein products of mouse I and mouse II proinsulin genes, is used. Briefly, serum is collected by inserting a needle into the submandibular vein and collecting ˜0.2 mL of blood. The blood is centrifuged for 30 minutes at 17,000 rpm in a refrigerated centrifuge, and serum is collected and stored −80° C.
Five-week old female NOD mice are randomly assigned to three groups as described in Example 1: (1) control group (oil only); (2) insulin-related peptide treatment (Humulin®) started at six weeks of age; or (3) insulin-related peptide treatment (Humulin®) started at ten weeks of age. Mice in the treatment groups (2) and (3) are sublingually administered 87 μg of Humulin® once per day up to 30 weeks of age. Baseline C-peptide measurements are taken from serum drawn at week 6. Thereafter, C-peptide measurements are taken from serum drawn 1 time per 2 weeks beginning at week 20 up to 30 weeks of age.
A general note: An ELISA detects its analyte on a solid surface through an enzyme-linked reagent.

For experiment [2], the system named is islet cell autoantibody levels. Briefly: Autoantibody titer in NOD mice (ELISA). The settings on record: sublingual 87 μg once per day up to 30 weeks of age, compared to untreated controls. The class given is in vivo, mouse. The text has this:
Autoantibody titer assay. Commercially available ELISA assays are employed for detecting the presence of anti-insulin antibodies in serum samples collected from subjects.
Five-week old female NOD mice are randomly assigned to three groups as described in Example 1: (1) control group (oil only); (2) insulin-related peptide treatment (Humulin®) started at six weeks of age; or (3) insulin-related peptide treatment (Humulin®) started at ten weeks of age. Mice in the treatment groups (2) and (3) are sublingually administered 87 μg of humulin once per day up to 30 weeks of age. The subjects are assessed for baseline levels of autoantibodies at week 6. Thereafter, autoantibody titer measurements are taken once every other week beginning at week 15 up to 30 weeks of age.

Where [3] appears, read: FIG. 1A, treatment group 2, sublingual, started at six weeks of age, compared to control group.
[4] abbreviates: FIG. 1A, treatment started at 6 weeks of age.
The mark [5] stands for this setting: FIG. 1B, treatment started at 10 weeks of age.

Consider “Humulin: commercial recombinant human insulin solution (Humulin R U-500, 500 units/mL) mixed 1:1 with 100% glycerin for sublingual dosing”, for which, in experiment [1] (FIG. 1A, started at 6 weeks of age up to 30 weeks), the “Median Survival (time to Type 1 diabetes onset)” value was determined as 27 weeks. Besides, in experiment [1] (setting [3]), the “incidence (% T1D Onset) of Type 1 diabetes” value is “significantly reduced” and the “onset time (weeks) of Type 1 diabetes” value was “significantly reduced”. In addition, in experiment [1] (setting [4]), the “Ratio of median survival (control vs Humulin)” value is recorded as 0.778, the “Reciprocal of ratio of median survival” value amounted to 1.29, the “Gehan-Breslow-Wilcoxon test: Are the survival curves significantly different?” value is “Yes” and the “Log-rank (Mantel-Cox) test: Are the survival curves significantly different?” value was “Yes”. In experiment [1] (FIG. 1B, started at 10 weeks of age up to 30 weeks), the “Median Survival (time to Type 1 diabetes onset)” value is 24 weeks. In experiment [1] (setting [5]), the “Ratio of median survival (control vs Humulin)” value is given as 0.8750, the “Reciprocal of ratio of median survival” value was determined as 1.14, the “Gehan-Breslow-Wilcoxon test: Are the survival curves significantly different?” value was “No” and the “Log-rank (Mantel-Cox) test: Are the survival curves significantly different?” value is on record as “No”. Further, in the experiment on serum C-peptide, the “serum C-peptide levels” value is recorded as “maintenance or enhanced serum C-peptide levels”. Besides, the “antigenic response (e.g., islet cell autoantibody levels)” value in experiment [2] was “attenuated antigenic response”.
